Test results taken from ChEMBL document CHEMBL1201862, “PubChem BioAssay data set” (2004).
The source made the active and inactive calls. Residues, ends and D or L forms follow the SMILES beside them. *: point of attachment. Boc = CC(C)(C)OC(=O)*; Bn = c1ccc(C*)cc1

What was measured:
[1] = Luminescence Cell-Based Dose Response HTS to Identify Activators of Luciferase Translation or Activity in H4 […] Cells. [Related pubchem assays: 1829 (Project Summary), 1814 (Primary HTS)]; type: functional
H4 = assay: Luminescence Cell-Based Dose Response HTS to Identify Activators of 5'UTR Stem-Loop Driven Prion Protein mRNA Translation in H4 Neuroglioblastoma Cells. [Related pubchem assays: 1829 (Project Summary), 1814 (Primary HTS)]; type: functional; settings: Homo sapiens
[2] = system: Streptococcus sp. 'group A'; assay: growth inhibition of control SK(-) GAS strain, dose response, counter-screen for streptokinase expression inhibitor project, luminescence, kanamycin, BacTiterGlo, confirmation (AID 1900); type: functional, organism-based
Streptokinase A = biological target: T1, Streptokinase A (Streptococcus pyogenes serotype M1, UniProt P10520); assay: S. pyogenes streptokinase expression inhibitors, potency, dose response, plasminogen activation absorbance, OD405 (AID 1914); type: functional, Streptococcus pyogenes M1 GAS;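 further: secreted streptokinase activity via plasminogen activation per viability signal from cell pellet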
T1 sequence (P10520 whole entry): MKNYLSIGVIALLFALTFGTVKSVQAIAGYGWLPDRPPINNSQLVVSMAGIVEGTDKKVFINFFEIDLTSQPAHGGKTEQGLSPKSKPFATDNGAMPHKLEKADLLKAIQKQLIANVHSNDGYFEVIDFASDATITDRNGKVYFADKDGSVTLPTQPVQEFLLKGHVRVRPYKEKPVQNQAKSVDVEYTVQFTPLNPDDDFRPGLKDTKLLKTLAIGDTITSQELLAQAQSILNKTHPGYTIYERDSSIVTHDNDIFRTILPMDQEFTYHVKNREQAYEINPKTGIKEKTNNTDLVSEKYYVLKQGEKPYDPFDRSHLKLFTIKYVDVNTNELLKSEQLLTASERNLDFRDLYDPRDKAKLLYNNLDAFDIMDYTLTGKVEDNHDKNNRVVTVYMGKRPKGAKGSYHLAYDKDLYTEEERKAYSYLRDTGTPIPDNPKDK

Streptococcus = assay: Group A Streptococcus viability loss, dose response, counter-screen for streptokinase expression inhibitor project, luminescence, BacTiterGlo (AID 1915); type: functional, organism-based;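 further: potency for reduction of bacterial viability or growth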
INS1 = assay: beta cell apoptosis inhibitors, cytokine rescue, dose response, luminescence, retest (AID 449756); type: functional, cell-based; settings: Rattus norvegicus;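 further: cell death triggered by IL-1 beta plus TNF-alpha plus IFN-gamma mixture; protective hits raise ATP signal compared with cytokine alone wells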
Cytochrome P450 1A2 = biological target: T2, Cytochrome P450 1A2 (Homo sapiens, UniProt P05177);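 further: PubChem cytochrome P450 panel assay, CYP1A2 panel member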
T2 sequence (P05177 whole entry): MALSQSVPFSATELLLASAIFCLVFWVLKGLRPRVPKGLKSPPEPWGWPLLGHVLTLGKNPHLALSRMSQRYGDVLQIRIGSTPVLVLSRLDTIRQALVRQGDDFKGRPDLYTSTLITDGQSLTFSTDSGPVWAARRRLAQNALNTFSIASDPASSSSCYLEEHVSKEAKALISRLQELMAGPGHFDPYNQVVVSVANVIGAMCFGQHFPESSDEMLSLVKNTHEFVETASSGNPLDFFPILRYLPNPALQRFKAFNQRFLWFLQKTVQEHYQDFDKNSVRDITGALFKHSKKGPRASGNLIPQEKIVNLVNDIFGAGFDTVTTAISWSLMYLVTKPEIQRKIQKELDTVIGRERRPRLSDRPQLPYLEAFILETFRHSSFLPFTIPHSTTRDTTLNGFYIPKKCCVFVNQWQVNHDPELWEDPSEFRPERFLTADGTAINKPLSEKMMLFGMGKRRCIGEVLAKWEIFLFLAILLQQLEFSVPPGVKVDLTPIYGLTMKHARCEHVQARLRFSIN

Cytochrome P450 2C9 = Cytochrome P450 2C9 (Homo sapiens, UniProt P11712)
[3] = Luminescence Cell-Based Dose Retest to Confirm Inhibitors of Cancer Stem Cells. [Related pubchem assays (depositor defined):AID2717, AID2721]; type: functional; settings: Homo sapiens
Cytochrome P450 3A4 = Cytochrome P450 3A4 (Homo sapiens, UniProt P08684);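 further: CYP3A4 tested as one member of a cytochrome P450 panel screen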
Cytochrome P450 2C19 = Cytochrome P450 2C19 (Homo sapiens, UniProt P33261); assay: Cytochrome panel assay with activity outcomes. Panel member name: p450-cyp2c19 Compounds with AC50 equal or less than 10 uM are considered active; type: functional; settings: read-out: AC50
[4] = NIH-3T3 fibroblast cytotoxicity, dose response, cytotoxicity control, cell-based, fluorescence, Alamar Blue, secondary assay (AID 2327); type: functional;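 further: NIH-3T3 mouse fibroblasts cultured with fluconazole at 8 µg/mL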
[5] = C. albicans growth with fluconazole, confirmation, fluorescence, retest (AID 2467); type: functional, cell-based
[6] = biological target: T3, Rac GTPase-activating protein 1 (Homo sapiens, UniProt Q9H0H5); assay: MgcRacGAP GTPase-activating activity inhibitors, confirmation, biochemical, ADP Hunter fluorescence, primary and confirmatory (AID 624330); type: functional
T3 sequence (Q9H0H5 whole entry): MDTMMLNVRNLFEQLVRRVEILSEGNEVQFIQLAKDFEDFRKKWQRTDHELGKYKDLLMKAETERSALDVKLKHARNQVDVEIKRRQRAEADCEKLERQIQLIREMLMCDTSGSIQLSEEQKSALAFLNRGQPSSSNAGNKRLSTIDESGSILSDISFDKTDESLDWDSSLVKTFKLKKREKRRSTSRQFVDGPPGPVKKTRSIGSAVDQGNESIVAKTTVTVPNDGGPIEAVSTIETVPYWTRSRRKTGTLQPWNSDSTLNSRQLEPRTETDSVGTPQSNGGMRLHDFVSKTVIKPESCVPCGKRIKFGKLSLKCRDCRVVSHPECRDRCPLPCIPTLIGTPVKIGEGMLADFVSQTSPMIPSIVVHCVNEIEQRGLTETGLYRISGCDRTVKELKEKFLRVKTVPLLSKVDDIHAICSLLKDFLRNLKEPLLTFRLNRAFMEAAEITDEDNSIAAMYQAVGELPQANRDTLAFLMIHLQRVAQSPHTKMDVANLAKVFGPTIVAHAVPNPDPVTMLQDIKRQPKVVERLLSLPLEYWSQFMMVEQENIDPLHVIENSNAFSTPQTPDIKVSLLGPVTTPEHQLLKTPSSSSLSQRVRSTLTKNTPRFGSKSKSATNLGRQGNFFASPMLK

[7] = biological target: Luciferin 4-monooxygenase (Photinus pyralis, UniProt P08659); assay: firefly luciferase enzyme inhibitors, dose response, biochemical, luminescence (AID 1891)
[8] = Luminescence Cell-Based Dose Confirmation HTS to Identify Inhibitors of Platelet Dense Granule Release. [Related pubchem assays: 1663 (Primary HTS), 1678 (Summary of Project)]; type: functional

Cytochrome P450 2C9, sequence (P11712 whole entry): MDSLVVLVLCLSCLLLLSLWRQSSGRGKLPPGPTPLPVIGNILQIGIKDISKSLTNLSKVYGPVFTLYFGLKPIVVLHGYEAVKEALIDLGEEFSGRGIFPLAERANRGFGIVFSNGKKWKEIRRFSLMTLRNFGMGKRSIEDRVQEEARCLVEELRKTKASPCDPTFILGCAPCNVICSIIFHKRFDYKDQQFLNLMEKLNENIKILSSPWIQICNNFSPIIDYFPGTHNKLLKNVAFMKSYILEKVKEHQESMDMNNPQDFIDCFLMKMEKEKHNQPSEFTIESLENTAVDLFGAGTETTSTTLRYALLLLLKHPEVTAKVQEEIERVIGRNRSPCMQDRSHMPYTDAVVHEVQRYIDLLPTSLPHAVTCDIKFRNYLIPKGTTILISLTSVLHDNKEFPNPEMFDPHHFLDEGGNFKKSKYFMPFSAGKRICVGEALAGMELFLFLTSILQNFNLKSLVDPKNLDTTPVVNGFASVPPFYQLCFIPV
Cytochrome P450 3A4, sequence (P08684 whole entry): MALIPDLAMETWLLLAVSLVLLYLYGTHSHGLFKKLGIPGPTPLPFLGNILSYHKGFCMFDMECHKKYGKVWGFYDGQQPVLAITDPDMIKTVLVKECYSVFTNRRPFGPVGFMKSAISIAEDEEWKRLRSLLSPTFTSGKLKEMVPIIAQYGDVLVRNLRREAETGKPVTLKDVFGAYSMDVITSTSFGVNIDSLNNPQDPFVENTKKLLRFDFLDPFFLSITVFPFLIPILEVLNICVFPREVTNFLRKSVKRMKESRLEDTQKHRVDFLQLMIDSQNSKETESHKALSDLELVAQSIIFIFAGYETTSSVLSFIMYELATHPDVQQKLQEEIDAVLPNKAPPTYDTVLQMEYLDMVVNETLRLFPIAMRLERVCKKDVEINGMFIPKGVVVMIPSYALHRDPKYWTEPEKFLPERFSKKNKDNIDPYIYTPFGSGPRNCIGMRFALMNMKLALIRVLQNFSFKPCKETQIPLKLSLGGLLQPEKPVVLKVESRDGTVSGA
Cytochrome P450 2C19, sequence (P33261 whole entry): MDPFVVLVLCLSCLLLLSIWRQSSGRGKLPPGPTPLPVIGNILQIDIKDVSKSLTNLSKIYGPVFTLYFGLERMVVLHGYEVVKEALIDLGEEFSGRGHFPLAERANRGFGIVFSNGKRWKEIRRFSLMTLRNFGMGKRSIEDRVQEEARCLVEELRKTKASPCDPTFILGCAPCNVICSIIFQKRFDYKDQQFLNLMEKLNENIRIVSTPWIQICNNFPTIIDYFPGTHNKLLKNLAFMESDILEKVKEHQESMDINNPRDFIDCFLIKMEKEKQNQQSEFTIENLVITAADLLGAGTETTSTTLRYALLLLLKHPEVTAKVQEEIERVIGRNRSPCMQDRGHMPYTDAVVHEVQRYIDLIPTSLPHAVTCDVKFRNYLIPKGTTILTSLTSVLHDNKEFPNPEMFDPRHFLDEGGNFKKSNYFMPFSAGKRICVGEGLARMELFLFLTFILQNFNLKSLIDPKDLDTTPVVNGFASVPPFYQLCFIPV
Luciferin 4-monooxygenase, sequence (P08659 whole entry): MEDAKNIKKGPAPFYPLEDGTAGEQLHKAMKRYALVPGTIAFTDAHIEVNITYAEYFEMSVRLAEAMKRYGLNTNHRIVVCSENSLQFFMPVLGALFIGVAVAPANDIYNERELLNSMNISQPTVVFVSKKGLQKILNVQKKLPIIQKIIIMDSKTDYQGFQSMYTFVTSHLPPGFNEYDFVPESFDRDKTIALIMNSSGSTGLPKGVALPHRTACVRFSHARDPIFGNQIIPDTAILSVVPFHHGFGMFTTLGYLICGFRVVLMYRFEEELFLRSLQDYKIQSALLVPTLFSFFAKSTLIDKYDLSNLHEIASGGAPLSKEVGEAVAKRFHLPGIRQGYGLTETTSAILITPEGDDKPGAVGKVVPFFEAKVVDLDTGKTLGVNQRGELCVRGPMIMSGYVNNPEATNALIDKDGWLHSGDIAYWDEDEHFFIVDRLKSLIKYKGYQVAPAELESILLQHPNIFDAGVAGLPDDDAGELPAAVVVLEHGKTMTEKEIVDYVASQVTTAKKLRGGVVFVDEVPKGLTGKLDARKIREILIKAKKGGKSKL

With `COc1ccc(S(=O)(=O)n2ccc(-c3cnc(-c4ccccc4)s3)n2)cc1` the EC50 [1] was > 120 µM (not active) and the EC50 (H4) was 41.2 µM (active).
With `Cc1ccccc1Oc1nc(-c2ccccn2)nc2ccccc12` the EC50 [2] was 12.4 µM (active), the EC50 (Streptokinase A) was > 150 µM (not active) and the EC50 (Streptococcus) was 18.5 µM (active). For the same molecule, the AC50 (INS1) was 2.19 µM (active).
In the case of `CC1=N/C(=C\c2ccc([N+](=O)[O-])cc2)C(=O)N1c1ccc(Br)c(C)c1`, the AC50 (Cytochrome P450 1A2) is reported as 5.62 µM (inconclusive) and the AC50 (Cytochrome P450 2C9) is reported as 7.94 µM (inconclusive).
For `c1nc(NCc2ccc3c(c2)OCO3)c2cc(-c3ccc4c(c3)OCCO4)ccc2n1`, the AC50 (INS1) was 10.4 µM (active).
With `COc1ccc(OC)c(C(=O)CSc2nccc(-c3ccc(Br)cc3)n2)c1` the AC50 [3] was 1.33 µM (active).
With `Cn1c(=O)c(-c2cc(F)cc(F)c2)nc2cnc(N3CCNCC3)nc21` the AC50 (Cytochrome P450 3A4) was 31.6 µM (inconclusive) and the AC50 (Cytochrome P450 2C9) was 25.1 µM (inconclusive).
In the case of `COc1ccc(Nc2nnc(-c3ccccc3)c3ccccc23)cc1C(=O)N1CCCCC1`, the AC50 [3] is reported as 31.2 µM (active).
For `O=c1cnc2cncnc2n1Cc1ccccc1`, the AC50 (Cytochrome P450 2C19) was 39.8 µM (inconclusive), the AC50 (Cytochrome P450 3A4) was 20 µM (inconclusive) and the AC50 (Cytochrome P450 2C9) was 31.6 µM (inconclusive).
With `Oc1c(C(c2ccccn2)N2CCC(Cc3ccccc3)CC2)cc(Cl)c2cccnc12` (stereo not given) the EC50 [4] was 13.9 µM (inconclusive) and the EC50 [5] was 1.46 µM (active).
With `O=C(CN1C(=O)S/C(=C\c2ccccn2)C1=O)Nc1ccccc1` the EC50 [4] was 89.4 µM (active) and the EC50 [5] was > 38 µM (not active).
For `COc1ccc(OC)c(-c2csc(NC(=O)c3ccc(F)cc3)n2)c1`, the AC50 [3] was 2.38 µM (active).
In the case of `O=C(c1cccc(F)c1)N1CCN(C2CCCCC2)CC1`, the IC50 [6] is reported as 116 µM (active).
For `O=C(O)c1cc(O)ccc1NC(=O)C(c1ccccc1)c1ccccc1`, the AC50 [3] was > 195 µM (inactive).
With `COc1ccc(NS(=O)(=O)c2cccc(C(=O)NN=Cc3ccc(O)c(OC)c3)c2)cc1` the IC50 [6] was 79.4 µM (active).
In the case of `CCCCNc1cc(=O)oc2ccccc12`, the AC50 (Cytochrome P450 3A4) is reported as 17.8 µM (inconclusive) and the AC50 (Cytochrome P450 2C9) is reported as 6.31 µM (inconclusive).
With `COc1cc(/C=N/Nc2ccc(F)cc2F)cc(OC)c1OC` the EC50 [4] was 20.8 µM (active) and the EC50 [5] was > 38 µM (not active).
For `COc1cc(/C=N/NC(=O)/C(=C/c2ccccc2)CCO)ccc1O`, the EC50 [7] was > 112 µM (not active), the EC50 [8] was 11.1 µM (active) and the IC50 [6] was 35.7 µM (active).
In the case of `CC(C)CC(NC(=O)C(NC(=O)C(Cc1ccc(OCc2ccccc2)cc1)NC(=O)OC(C)(C)C)C(C)C)C(N)=O` (stereo not drawn) (Boc-Tyr(Bn)-Val-Leu-NH2; configuration not given here), the AC50 [3] is reported as 24.4 µM (active).
In the case of `CCOC(=O)Nc1ccc(NCc2ccc(F)cc2)nc1N` [FLUPIRTINE], the AC50 (Cytochrome P450 2C19) is reported as 25.1 µM (inconclusive), the AC50 (Cytochrome P450 1A2) is reported as 39.8 µM (inconclusive) and the AC50 (Cytochrome P450 2C9) is reported as 25.1 µM (inconclusive).
